Where “and” joins values, the source holds several entries; their conditions need not be identical. Equal entries are not always repeated.
Tests used:
[1] = molecular target: T1, GlyT2 protein (Homo sapiens, UniProt Q9Y345); details: relative to main action on GlyT1; cited from earlier work
T1 sequence (Q9Y345 1-797): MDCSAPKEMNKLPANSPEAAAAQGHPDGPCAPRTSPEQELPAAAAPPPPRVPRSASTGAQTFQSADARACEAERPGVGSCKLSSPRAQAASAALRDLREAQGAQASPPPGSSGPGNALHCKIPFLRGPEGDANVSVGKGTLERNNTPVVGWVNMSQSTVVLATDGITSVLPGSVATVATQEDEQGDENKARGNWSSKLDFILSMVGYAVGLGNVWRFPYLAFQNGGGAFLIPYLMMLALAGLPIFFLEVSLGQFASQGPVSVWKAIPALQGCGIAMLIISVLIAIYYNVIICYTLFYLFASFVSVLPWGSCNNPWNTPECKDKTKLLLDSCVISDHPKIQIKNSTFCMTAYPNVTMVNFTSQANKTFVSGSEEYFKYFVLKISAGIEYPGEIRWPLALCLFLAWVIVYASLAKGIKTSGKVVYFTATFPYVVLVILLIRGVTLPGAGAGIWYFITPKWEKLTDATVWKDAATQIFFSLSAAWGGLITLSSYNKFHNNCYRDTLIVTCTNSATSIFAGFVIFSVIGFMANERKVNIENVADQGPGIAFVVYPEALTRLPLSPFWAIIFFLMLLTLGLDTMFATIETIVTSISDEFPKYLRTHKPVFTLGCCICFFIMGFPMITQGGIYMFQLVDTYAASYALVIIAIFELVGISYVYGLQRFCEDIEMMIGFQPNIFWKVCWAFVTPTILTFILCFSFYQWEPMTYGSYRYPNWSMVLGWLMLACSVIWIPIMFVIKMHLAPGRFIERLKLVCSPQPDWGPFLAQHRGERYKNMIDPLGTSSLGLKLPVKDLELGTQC

[2] = oral administration
[3] = tested on: striatal extracellular glycine levels; details: 6 mg/kg i.p., rat approx. 500 g; stated as expected; cited from earlier work
[4] = tested on: ethanol high preferring male Wistar rats; experiment: Limited access free choice ethanol (6% v/v) / water drinking in ethanol high preferring rats
Method: Male adult Wistar rats weighing 250-300 g (approx. 50 days old) were supplied by Beekay (Stockholm, Sweden). The animals were housed in groups of four at a constant cage temperature (25° C.) and humidity (65° C.). The animals were allowed to adapt for one week to the novel environment before any experiment (Screening for ethanol preference) was performed. They were kept under regular light-dark conditions (light on at 07:00 a.m. and off at 19:00 p.m.) with free access to standard rat feed (Beekay feed) and tap water.
Rats had continuous access to a bottle of ethanol solution in addition to the water bottle. […] The animals were subsequently housed individually in plastic cages. They had continuous access to two bottles containing either tap water or 6% ethanol solution. […] Water and ethanol intake were measured over a 6-7-week period. The amount (g) of ethanol solution consumed, in percent of total fluid intake (g), was used as an index of ethanol preference. Rats were classified as low-(<20% ethanol), medium (20%-60% ethanol), or high-(>60% ethanol) preferring based on their ethanol preference.
Ethanol (AB Svensk sprit) was dissolved (2-4-6% v/v) with regular tap water and presented in regular plastic 300 ml bottles. […] NaCl (0.9%) was used as vehicle.
To adapt to the experimental procedure, approx. 80 days old ethanol high preferring male Wistar rats were limited to drink both ethanol (6% v/v) and water for only three hours/day during one week, so called limited access (limited access) drinking. Thereafter, daily MTHMPNMglycine or vehicle administration started. MTHMPNMglycine or vehicle was injected i.p. and the rats were allowed to rest for approx. 40 min after which they were presented a choice between ethanol and water and allowed to drink for 3 hours. In the first experiment rats were challenged with MTHMPNMglycine (6 mg/kg) or vehicle for two weeks and alcohol and water intake were monitored. The experiment was preceded and ended by a limited access period.
Again the rats were treated with MTHMPNMglycine (6 mg/kg) or vehicle for 13 days. In addition, the rats were thereafter exposed to a two-week period of alcohol deprivation (limited access), during which they were allowed to drink only water 3 hours per day. After the limited access period the rats were again challenged with MTHMPNMglycine or vehicle and re-exposed to ethanol for an additional time-period of 13 days. […] The rats were presented to the water and ethanol (6% v/v) bottles approx. 40 minutes after drug administration.
The ethanol and water consumption data were statistically analysed using Analysis of variance (ANOVA) for repeated measures followed by post hoc analysis by means of Fisher's Protected Least Significant Difference (PLSD) test. Paired t-test was used for dependent comparisons between values obtained at different time-points. All values are expressed as means ±SEM. A probability value (P) less than 0.05 was considered statistically significant.
A new set of male ethanol high-preferring Wistar rats were injected i.p. with either MTHMPNMglycine or vehicle. Approx. 40 minutes after injection all rats were exposed to a free choice between ethanol (6% v/v) and water for 3 hours. First all rats received MTHMPNMglycine (6 mg/kg) or vehicle daily during 13 days.

[5] = 10 mg/kg, dose-finding pilot experiments

CCCOc1ccc(C2=CC3(CCN(CC(=O)O)CC3)Oc3ccccc32)cc1F [FPPSBPAA, 4-[3-fluoro-4-propoxyphenyl]-spiro[2H-1-benzopyran-2,4′-piperidine]-1′-acetic acid]
action on the GlyT2 protein [1]: negligible action

COc1ccc2c(c1)CC[C@H](CN(C)CC(=O)O)[C@@H]2c1ccccc1 [MTHMPNMglycine]
oral dose that induced visible behavioral changes [2]: ≥ 13.5 mg/kg | duration of behavioral changes [5]: 10 to 15 min | incidence of behavioral changes [5]: one out of ten | gross behavior at the doses used in the study (1.5-6 mg/kg i.p., rats): behaviorally unaffected | mean body weight vs vehicle (during the limited access/experimental time): significant lowered | action on the GlyT2 protein [1]: negligible action | increase of striatal extracellular glycine levels [3]: 50-80% and 50-70% | total fluid intake vs vehicle ([4]; Experiment 1, 6 mg/kg i.p. daily, day 4-14, group effect p=0.0004, groups also differed on day 1-3): significantly reduced | ethanol intake vs vehicle ([4]; Experiment 1, 6 mg/kg i.p. daily, day 4-14, group effect p=0.0125): significantly reduced | ethanol preference vs vehicle ([4]; Experiment 1, 6 mg/kg i.p. daily, day 4-14, group effect p=0.1899): no group effect | water intake vs vehicle ([4]; Experiment 1, 6 mg/kg i.p. daily, day 4-14, group effect p=0.8713): no difference | ethanol preference, difference vs vehicle ([4]; Experiment 2, 1.5 mg/kg i.p., day 28-29, group effect p=0.2117): totally abolished | ethanol intake, difference vs vehicle ([4]; Experiment 2, 1.5 mg/kg i.p., day 28-29, group effect p=0.8614): totally abolished | ethanol preference vs vehicle ([4]; Experiment 2, 3 mg/kg i.p., day 24-27, group effect p=0.1555): appeared to decrease the difference between the groups | ethanol intake vs vehicle ([4]; Experiment 2, 3 mg/kg i.p., day 24-27, group effect p=0.2973): difference between the groups was reduced | treatment time after which the ethanol intake reducing effect was most pronounced ([4]; Experiment 2, 6 mg/kg i.p.): 4 to 6 days | water intake vs vehicle ([4]; Experiment 2, 6 mg/kg i.p., after alcohol deprivation, day 17-23, group effect p=0.0659): tendency to increase their water intake | ethanol preference vs vehicle ([4]; Experiment 2, 6 mg/kg i.p., after approx. one week, day 11-16, group effect p<0.0001): significant decrease | total fluid intake vs vehicle ([4]; Experiment 2, 6 mg/kg i.p., after four days of treatment, day 8-16, group effect p<0.0001): significantly lowered | ethanol intake vs vehicle ([4]; Experiment 2, 6 mg/kg i.p., after one week of treatment, day 11-17, group effect p=0.0001): even more pronounced | ethanol intake vs vehicle ([4]; Experiment 2, 6 mg/kg i.p., after two weeks of alcohol deprivation, day 17-23, group effect p=0.0348): remained significantly reduced | ethanol preference vs vehicle ([4]; Experiment 2, 6 mg/kg i.p., after two weeks of alcohol deprivation, day 17-23, group effect p=0.0572): remained reduced, although not significantly | total fluid intake after vs before reintroducing ethanol choice (within group) ([4]; Experiment 2, 6 mg/kg i.p., day 14 vs. day 19, paired t-test p<0.0001): significantly increased | ethanol intake after vs before alcohol deprivation period (within group) ([4]; Experiment 2, 6 mg/kg i.p., day 14 vs. day 19, paired t-test p=0.0135): significantly increased | water intake after vs before alcohol deprivation period (within group) ([4]; Experiment 2, 6 mg/kg i.p., day 14 vs. day 19, paired t-test p=0.0188): significantly increased their water intake | ethanol intake vs vehicle ([4]; Experiment 2, 6 mg/kg i.p., first 6 days of treatment, day 4-10, group effect p=0.0008): significantly reduced | ethanol preference vs vehicle ([4]; Experiment 2, 6 mg/kg i.p., first 6 days, day 4-10, group effect p=0.1300): no significant difference | water intake vs vehicle ([4]; Experiment 2, 6 mg/kg i.p., first part of the experiment (before alcohol deprivation)): not significantly different | total fluid intake vs vehicle ([4]; Experiment 2, after the alcohol deprivation (limited access) period): no difference

From patent publication US20080051456A1, “Glycine Reuptake Inhibitors for Treatment of Drug Dependence” (priority 2005, published 2008)
